Measurements published in patent publication US20050069541A1, “Composition for and treatment of demyelinating diseases and paralysis by administration of remyelinating agents” (priority 2003, published 2005).
“Also recorded” adds a separate entry of the source.

How the values were obtained:
IL-2, IL-10, MCP-1 RNA = experiment: Chronic EAE: quantitative RT-PCR of spinal cord; assay type: in vivo, guinea pig
Protocol: Quantitative Reverse Transcription-PCR: IL-2, IL-10, MCP-1. RNA was isolated from 30 mg of frozen guinea pig spinal cord using the S.N.A.P.™ (simple nucleic acid preparation) total RNA Isolation Kit (Invitrogen) according to manufacturer's instructions, modified to include a second DNAse treatment step followed by an additional purification over the S.N.A.P. column.
Primer/probe sequences and concentrations for IL-2, IL-10, and MCP-1 are given in Table 7, as well as the standard RNA used for each gene. RT-PCR was carried out in triplicate using the ABI PRISM® 7700 Sequence Detection System. 50 μl reactions contained 10 to 800 ng of total RNA and primers and probes at the concentrations indicated above in reaction buffer consisting of 6.67% glycerol (Amresco); 5.5 mM MgCl; 300 μM DATP, dCTP, dGTP, and dUTP; 100 nM probe; 1.25 unit of AmpliTaq Gold® DNA Polymerase (Applied Biosystems); 1× TaqMan® Buffer A (TaqMan® PCR Core reagents kit, Applied Biosystems), 20 units of RNase Inhibitor (Roche); 1.25 unit of murine leukemia virus (MuLV) Reverse Transcriptase (Applied Biosystems). Reverse-transcription of RNA was carried out at 48° C. for 30 min., followed by a 10 min. denaturing step at 95° C. PCR was carried out by 40 thermo-cycles consisting of 95° C. for 15 seconds followed by 60° C. for 1 minute. Each plate included a standard curve using the standard RNA listed in Table 7 and two additional control samples: 1) a positive control RNA sample used on all plates, 2) a non-template control (NTC).
The correlation coefficients of the standard curves were greater than 0.990 for all data shown. The coefficients of variation for sample triplicates were less than 0.2. Since the RNA used for the standard curve is a heterogeneous mix of RNA containing a constant but unknown amount of the target message, the numbers calculated are relative.

[1] = tested on: EAE in female Hartley guinea pigs
[2] = Receptor-saturating levels of compound maintained in dosed EAE guinea pigs; assay type: in vivo; conditions: 30 mg/kg twice a day, subcutaneously, guinea pig
Protocol: Treatment Regimes. N-[N-(3-pyridinesulfonyl)-L-3,3-dimethyl-4-thiaprolyl]-O-[1-methylpiperazin-4-ylcarbonyl]-L-tyrosine isopropyl ester is a small molecule that binds with high affinity to human and guinea pig 4 integrin (IC50 for inhibition of cell adhesion to VCAM=1 nm). Disease in animals was considered chronic by day 40 post immunization, and thus the treatment period began at this time, and lasted for 10, 20, 30 or 40 days. Animals received either 0.5 mL saline (vehicle for N-[N-(3-pyridinesulfonyl)-L-3,3-dimethyl-4-thiaprolyl]-O-[1-methylpiperazin-4-ylcarbonyl]-L-tyrosine isopropyl ester; n=20) or 30 mg/kg N-[N-(3-pyridinesulfonyl)-L-3,3-dimethyl-4-thiaprolyl]-O-[1-methylpiperazin-4-ylcarbonyl]-L-tyrosine isopropyl ester (n=25) twice a day. With the dosing regimen, receptor saturation levels of N-[N-(3-pyridinesulfonyl)-L-3,3-dimethyl-4-thiaprolyl]-O-[1-methylpiperazin-4-ylcarbonyl]-L-tyrosine isopropyl ester (>10 nm) were maintained at all times. One subgroup of animals received N-[N-(3-pyridinesulfonyl)-L-3,3-dimethyl-4-thiaprolyl]-O-[1-methylpiperazin-4-ylcarbonyl]-L-tyrosine isopropyl ester for 30 days, and then treatment was withdrawn and the animals were maintained for an additional 10 days (n=5). All treatments were administered subcutaneously.
Treatment Regimes. Animals that met both treatment criteria were treated for intervals of 10, 20, 30 or 40 days. […]

SMILES: CC(C)OC(=O)[C@H](Cc1ccc(OC(=O)N2CCN(C)CC2)cc1)NC(=O)[C@H]1N(S(=O)(=O)c2cccnc2)CSC1(C)C [N-[N-(3-pyridinesulfonyl)-L-3,3-dimethyl-4-thiaprolyl]-O-[1-methylpiperazin-4-ylcarbonyl]-L-tyrosine isopropyl ester]
- cytokine RNA after withdrawal of compound (IL-2, IL-10, MCP-1 RNA; 10 days after withdrawal): returned to levels comparable to saline-treated animals
- IL-2 RNA in spinal cord during treatment (IL-2, IL-10, MCP-1 RNA; lumbar spinal cord): almost no detectable IL-2 RNA
- inflammatory cytokine RNA (IL-2, IL-10, MCP-1) during treatment (IL-2, IL-10, MCP-1 RNA; lumbar spinal cord, versus saline): significant reduction; also recorded: marked decrease
- start of clinical reversal following the initial treatment ([1]; 30 mg/kg 2x/day s.c.): 2 to 3 days
- mean clinical score over the treatment period versus saline ([1]; 30 mg/kg 2x/day s.c. from day 40 for 10-40 days, p<0.001 Mann Whitney): significantly lower
- mean clinical score day 70-80 after withdrawal (30 days treatment, 10 days off) versus continuous treatment ([1]; n=5, p<0.05 Mann Whitney): significantly greater
- clinical score reached during treatment in animals with an established clinical score of 2 ([1]; several animals, paresis reversed): 1
- escape from treatment ([1]; up to 40 days of treatment): None of the animals, however, escaped from treatment
- receptor saturation levels maintained at all times [2]: > 10 nm
